Laboratory results from ChEMBL document CHEMBL1154969, “LXXLL peptide mimetics as inhibitors of the interaction of vitamin D receptor with coactivators” (Bioorg Med Chem Lett, 2010).
One block for each compound: values may come before it.

Assays:
[1] = molecular target: T1, Vitamin D3 receptor (Homo sapiens, UniProt P11473); test: Antagonist activity at human recombinant VDR LBD expressed in HEK293 cells assessed as inhibition of 3 nM 1,25-(OH)2D3-induced transcriptional activation after 16 to 18 hrs by GAL4-dependent luciferase reporter gene assay; format: functional, cell-based
T1 sequence (P11473 whole entry): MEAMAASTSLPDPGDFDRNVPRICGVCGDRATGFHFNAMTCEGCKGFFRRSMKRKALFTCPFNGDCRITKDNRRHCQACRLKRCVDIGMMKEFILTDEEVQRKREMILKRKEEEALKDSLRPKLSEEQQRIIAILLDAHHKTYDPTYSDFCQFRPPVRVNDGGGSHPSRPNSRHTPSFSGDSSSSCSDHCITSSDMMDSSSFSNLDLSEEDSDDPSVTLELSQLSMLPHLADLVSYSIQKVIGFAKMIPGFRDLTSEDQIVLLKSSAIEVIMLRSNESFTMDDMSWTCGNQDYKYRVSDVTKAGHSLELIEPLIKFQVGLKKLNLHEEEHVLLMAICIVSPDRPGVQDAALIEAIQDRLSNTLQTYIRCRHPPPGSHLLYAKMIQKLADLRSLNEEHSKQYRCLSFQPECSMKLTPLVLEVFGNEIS

[2] = molecular target: T2, Estrogen receptor (Homo sapiens, UniProt P03372); test: Antagonist activity at human recombinant ERalpha LBD expressed in HEK293 cells assessed as inhibition of 0.3 nM estradiol-induced transcriptional activation after 16 to 18 hrs by GAL4-dependent luciferase reporter gene assay; format: functional, cell-based
T2 sequence (P03372 whole entry): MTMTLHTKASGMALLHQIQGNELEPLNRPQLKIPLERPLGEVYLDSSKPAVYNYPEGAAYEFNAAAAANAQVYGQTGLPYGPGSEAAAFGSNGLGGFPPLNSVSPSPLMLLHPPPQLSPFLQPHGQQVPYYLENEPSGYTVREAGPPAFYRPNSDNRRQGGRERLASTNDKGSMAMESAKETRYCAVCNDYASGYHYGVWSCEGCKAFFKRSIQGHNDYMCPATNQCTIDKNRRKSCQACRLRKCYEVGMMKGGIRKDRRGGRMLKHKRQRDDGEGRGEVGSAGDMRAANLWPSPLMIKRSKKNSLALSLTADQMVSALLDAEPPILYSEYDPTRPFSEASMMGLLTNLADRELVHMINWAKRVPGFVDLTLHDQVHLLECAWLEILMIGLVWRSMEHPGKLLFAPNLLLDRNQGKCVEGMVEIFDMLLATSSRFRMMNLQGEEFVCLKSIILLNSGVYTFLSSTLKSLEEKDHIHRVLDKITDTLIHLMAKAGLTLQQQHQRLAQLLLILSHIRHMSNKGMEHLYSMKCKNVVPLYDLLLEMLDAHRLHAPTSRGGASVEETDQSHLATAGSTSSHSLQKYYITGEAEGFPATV

[3] = molecular target: T3, Vitamin D3 receptor (Homo sapiens) (UniProt P11473); test: Displacement of 1,25-dihydroxyvitamin D3 from GST-tagged VDR ligand binding domain assessed as inhibition of interaction with coactivator proteins at 30 uM by TR-FRET assay
T3 sequence (whole entry): T1 sequence (P11473 whole entry)

[4] = molecular target: T4, Estrogen receptor (Homo sapiens) (UniProt P03372); conditions: HEK293, 30 uM
T4 sequence (whole entry): T2 sequence (P03372 whole entry)
Description: Antagonist activity at human recombinant ERalpha LBD expressed in HEK293 cells assessed as inhibition of 0.3 nM estradiol-induced transcriptional activation at 30 uM after 16 to 18 hrs by GAL4-dependent luciferase reporter gene assay

[5] = molecular target: T1, Vitamin D3 receptor; test: Displacement of 1,25-dihydroxyvitamin D3 from GST-tagged VDR ligand binding domain assessed as inhibition of interaction with coactivator proteins by TR-FRET assay
[6] = molecular target: T1, Vitamin D3 receptor; test: (§1) Antagonist activity at human recombinant VDR LBD expressed in HEK293 cells assessed as inhibition of 300 nM 1,25-(OH)2D3-induced transcriptional activation after 16 to 18 hrs by GAL4-dependent luciferase reporter gene assay; format: functional, cell-based
[7] = molecular target: T3, Vitamin D3 receptor (Homo sapiens); test: Antagonist activity at human recombinant VDR LBD expressed in HEK293 cells assessed as inhibition of 3 nM 1,25-(OH)2D3-induced transcriptional activation at 30 uM after 16 to 18 hrs by GAL4-dependent luciferase reporter gene assay; format: functional, cell-based
[8] = molecular target: T5, Estrogen receptor beta (Homo sapiens, UniProt Q92731); test: Antagonist activity at human recombinant ERbeta LBD expressed in HEK293 cells assessed as inhibition of 0.3 nM estradiol-induced transcriptional activation at 30 uM after 16 to 18 hrs by GAL4-dependent luciferase reporter gene assay; format: functional, cell-based
[9] = molecular target: T3, Vitamin D3 receptor (Homo sapiens); test: Antagonist activity at human recombinant VDR LBD expressed in HEK293 cells assessed as inhibition of 300 nM 1,25-(OH)2D3-induced transcriptional activation at 30 uM after 16 to 18 hrs by GAL4-dependent luciferase reporter gene assay; format: functional, cell-based
[10] = molecular target: T5, Estrogen receptor beta; test: Antagonist activity at human recombinant ERbeta LBD expressed in HEK293 cells assessed as inhibition of 0.3 nM estradiol-induced transcriptional activation after 16 to 18 hrs by GAL4-dependent luciferase reporter gene assay; format: functional, cell-based
[11] = molecular target: T3, Vitamin D3 receptor (Homo sapiens); test: Antagonist activity at human recombinant VDR LBD expressed in HEK293 cells assessed as inhibition of 3 nM 1,25-(OH)2D3-induced transcriptional activation at 10 uM after 16 to 18 hrs by GAL4-dependent luciferase reporter gene assay; format: functional, cell-based
[12] = molecular target: T3, Vitamin D3 receptor (Homo sapiens); test: Antagonist activity at human recombinant VDR LBD expressed in HEK293 cells assessed as inhibition of 300 nM 1,25-(OH)2D3-induced transcriptional activation at 10 uM after 16 to 18 hrs by GAL4-dependent luciferase reporter gene assay; format: functional, cell-based
[13] = molecular target: T3, Vitamin D3 receptor (Homo sapiens); test: Displacement of 1,25-dihydroxyvitamin D3 from GST-tagged VDR ligand binding domain assessed as inhibition of interaction with coactivator proteins at 10 uM by TR-FRET assay
[14] = molecular target: T3, Vitamin D3 receptor (Homo sapiens); test: as §1; format: functional, cell-based
[15] = molecular target: T6, Androgen receptor (Homo sapiens, UniProt P10275); test: Inhibition of AR
T6 sequence (P10275 whole entry): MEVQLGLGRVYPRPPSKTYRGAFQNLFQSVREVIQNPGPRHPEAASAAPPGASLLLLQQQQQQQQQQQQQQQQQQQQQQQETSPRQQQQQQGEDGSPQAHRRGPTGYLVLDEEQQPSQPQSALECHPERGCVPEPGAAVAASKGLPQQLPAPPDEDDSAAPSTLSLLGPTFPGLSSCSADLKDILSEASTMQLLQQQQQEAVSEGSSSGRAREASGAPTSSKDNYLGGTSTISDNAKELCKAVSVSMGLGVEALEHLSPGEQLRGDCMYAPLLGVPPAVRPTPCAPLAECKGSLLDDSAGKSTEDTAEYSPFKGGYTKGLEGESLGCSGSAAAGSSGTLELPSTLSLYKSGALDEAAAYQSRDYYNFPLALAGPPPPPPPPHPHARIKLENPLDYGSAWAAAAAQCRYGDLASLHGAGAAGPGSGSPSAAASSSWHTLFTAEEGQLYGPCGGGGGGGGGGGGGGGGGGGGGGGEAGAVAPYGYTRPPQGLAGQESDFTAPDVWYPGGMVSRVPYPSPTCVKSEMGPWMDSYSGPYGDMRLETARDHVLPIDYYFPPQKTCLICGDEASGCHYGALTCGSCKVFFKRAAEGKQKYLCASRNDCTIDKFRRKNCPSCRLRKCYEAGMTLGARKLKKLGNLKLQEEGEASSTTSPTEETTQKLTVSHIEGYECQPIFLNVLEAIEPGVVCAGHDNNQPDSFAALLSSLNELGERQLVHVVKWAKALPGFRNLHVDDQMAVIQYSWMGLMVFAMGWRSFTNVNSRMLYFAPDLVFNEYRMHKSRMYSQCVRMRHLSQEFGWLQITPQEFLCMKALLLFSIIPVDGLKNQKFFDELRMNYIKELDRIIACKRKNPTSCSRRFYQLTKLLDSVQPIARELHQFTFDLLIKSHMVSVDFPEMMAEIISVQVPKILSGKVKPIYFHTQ

[16] = molecular target: T2, Estrogen receptor; test: Inhibition of ER

T5 sequence (Q92731 whole entry, the tested form may be a part): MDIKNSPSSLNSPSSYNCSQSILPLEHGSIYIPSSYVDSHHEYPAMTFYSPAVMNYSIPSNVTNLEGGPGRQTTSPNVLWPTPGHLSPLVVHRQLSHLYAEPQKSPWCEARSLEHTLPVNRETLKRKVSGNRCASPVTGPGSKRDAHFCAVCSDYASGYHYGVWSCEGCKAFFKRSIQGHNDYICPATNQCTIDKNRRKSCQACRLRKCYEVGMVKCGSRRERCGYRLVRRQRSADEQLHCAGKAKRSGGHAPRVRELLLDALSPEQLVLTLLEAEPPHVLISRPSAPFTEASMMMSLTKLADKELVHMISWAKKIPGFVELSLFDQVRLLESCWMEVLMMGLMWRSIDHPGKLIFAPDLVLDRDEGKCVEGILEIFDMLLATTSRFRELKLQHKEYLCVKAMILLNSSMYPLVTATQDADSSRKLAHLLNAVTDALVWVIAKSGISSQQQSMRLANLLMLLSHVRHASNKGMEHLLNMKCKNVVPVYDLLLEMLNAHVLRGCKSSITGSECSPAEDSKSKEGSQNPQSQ

SMILES: CC(C)=Cc1cc2c(cc1N)N[C@@H](CC(C)C)C(=O)N(CCC(C)C)C2
IC50 [1]: 17 µM
IC50 [2]: > 30 µM
inhibition [3]: 76%
inhibition [4]: 8%
IC50 [5]: 20 µM
IC50 [6]: 23 µM
inhibition [7]: 68%
inhibition [8]: 56%
inhibition [9]: 59%
IC50 [10]: 22 µM

SMILES: C=C1/C(=C\C=C2/CCC[C@]3(C)[C@@H]([C@H](C)C[C@H]4C[C@@](C)(O)C(=O)N4CCc4ccccc4)CC[C@@H]23)C[C@@H](O)C[C@@H]1O
IC50 [1]: 0.22 µM
inhibition [11]: 98%
IC50 [6]: 3.3 µM
inhibition [12]: 66%
inhibition [13]: 87%

SMILES: CC(C)CNc1cc(CCc2cccc3ccccc23)nc(NCc2cccc3ccccc23)n1
Ki [15]: 1.5 µM

SMILES: CC(C)CCN1Cc2cc(CC(C)C)c(NCCN)cc2N[C@@H](CC(C)C)C1=O
IC50 [5]: 28 µM

SMILES: CC(C)Cc1cc(O)c(=O)n(Cc2ccc3ccccc3c2)c1-c1ccnc(Cc2ccccc2)c1
Ki [16]: 4.2 µM

Continued, values first:

inhibition [3]: 43%
IC50 [5]: > 30 µM
SMILES: CC(=O)NCCNc1cc2c(cc1CC(C)C)CN(CCC(C)C)C(=O)[C@H](CC(C)C)N2

IC50 [1]: 30 µM
IC50 [2]: > 30 µM
inhibition [3]: 48%
IC50 [5]: 30 µM
IC50 [6]: 30 µM
inhibition [14]: 8%
inhibition [7]: 47%
inhibition [8]: 18%
inhibition [9]: 53%
IC50 [10]: > 30 µM
SMILES: CC(C)CCN1Cc2cc(CC(C)C)c(N)cc2N[C@@H](CC(C)C)C1=O

Ki [16]: 29 µM
SMILES: CC(C)CNc1cc(CC(C)C)nc(NCC(C)C)n1

inhibition [3]: 46%
IC50 [5]: > 30 µM
SMILES: CC(C)CCN1Cc2cc(CC(C)C)c(NC(=N)N)cc2N[C@@H](CC(C)C)C1=O

IC50 [5]: 13 µM
SMILES: CC(C)CCN1Cc2cc(CC(C)C)c(NCCNC(=O)OC(C)(C)C)cc2N[C@@H](CC(C)C)C1=O
